# Measurements from patent US20020137929A1, “1 - (3-heterocyclylphenyl) isothiourea, -isourea, -guanidine and -amidine herbicidal agents” (Intellectual Property Department, BASF Aktiengesellschaft, priority 1998, published 2002).
# Legend:
# [1] = system: TRZAWR (Wheat, Winter, cv Riband); test: Preemergence herbicidal evaluation; type: in vivo, Triticum aestivum; details: rated 4-5 weeks after treatment
# Procedure, shortened: (§1)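 Visual 0-9 rating vs control (stand, vigor, malformation, size, chlorosis, overall appearance), scored 4-5 wk after spraying. Seeded soil cups were treated preemergence with compound in aqueous acetone, ~0.0156-0.500 kg/ha equivalent.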
# [2] = system: ECHORC (Watergrass (Calif.)); test: Preemergence weed control under flooded paddy conditions; type: in vivo, Echinochloa oryzoides; details: rated 3-4 weeks after treatment
# Procedure, shortened: (§2)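 Herbicidal effect is scored visually on a 0-9 scale against an untreated control, three to four weeks after compounds are pipetted into the flood water (1.5 to 3 cm deep) over seeds planted in silt loam at 0.5 cm depth. Rates: about 0.0313 to 0.500 kg/ha.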
# SETVI (Foxtail, Green) [3] = test: Postemergence herbicidal evaluation; type: in vivo, Setaria viridis
# Procedure, shortened: (§3)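 Herbicidal effect was judged by eye on a 0–9 scale covering stand, vigor, deformity, size and chlorosis, compared with controls, four to five weeks after seedlings about two weeks old were sprayed (40 psi, ~0.0156–0.500 kg/ha).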
# CYPSE (Flatsedge) [4] = test: Postemergence weed control under flooded paddy conditions; type: in vivo, Cyperus serotinus; details: postemergence weeds, 3-4 weeks after treatment
# Procedure, shortened: (§4)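 Injury ratings (0–9 scale covering stand, vigor, malformation, size, chlorosis and overall appearance versus control) were made three to four weeks after treatment. Test material, about 0.0313 to 0.500 kg/ha a.i. in 50/50 v/v aqueous/acetone, was added to flood water 1.5 to 3 cm deep over 3 to 5 cm weeds and 1.5 to 2.5 leaf rice.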
# [5] = system: ECHORC (Watergrass (Calif.)); test: as above; type: in vivo, Echinochloa oryzoides; details: postemergence weeds, 3-4 weeks after treatment
# Procedure, shortened: as §4
# ECHCG (Barnyardgrass) = test: Preemergence herbicidal evaluation; type: in vivo, Echinochloa crus-galli; details: rated 4-5 weeks after treatment
# Procedure, shortened: as §1
# ZEAMX (Corn, Field) [6] = test: Postemergence herbicidal evaluation; type: in vivo, Zea mays
# Procedure, shortened: as §3
# SETVI (Foxtail, Green) [7] = test: Preemergence herbicidal evaluation; type: in vivo, Setaria viridis; details: rated 4-5 weeks after treatment
# Procedure, shortened: as §1
# CYPIR (Rice Flatsedge) [8] = test: Postemergence weed control under flooded paddy conditions; type: in vivo, Cyperus iria; details: postemergence weeds, 3-4 weeks after treatment
# Procedure, shortened: as §4
# [9] = system: SAGPY (Arrowhead (Pygmaea)); test: as above; type: in vivo, Sagittaria pygmaea; details: postemergence weeds, 3-4 weeks after treatment
# Procedure, shortened: as §4
# ORYSAT (Rice, Tebonnet) = test: Postemergence herbicidal evaluation; type: in vivo, Oryza sativa, (L.) Tebonnet
# Procedure, shortened: as §3
# CYPSE (Flatsedge) [10] = test: Preemergence weed control under flooded paddy conditions; type: in vivo, Cyperus serotinus; details: rated 3-4 weeks after treatment
# Procedure, shortened: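 Values are visual 0-9 scores against a control for a preemergence application into paddy flood water at about 0.0313 to 0.500 kg/ha. Greenhouse duration was three to four weeks.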
# CYPIR (Rice Flatsedge) [11] = test: as above; type: in vivo, Cyperus iria; details: rated 3-4 weeks after treatment
# Procedure, shortened: as §2
# ZEAMX (Corn, Field) [12] = test: Preemergence herbicidal evaluation; type: in vivo, Zea mays; details: rated 4-5 weeks after treatment
# Procedure, shortened: as §1
structure (smiles),measurement,setting,value
"COC(=O)CCCN1C(=O)CSC1=Nc1cc(-n2c(=O)cc(C(F)(F)F)n(C)c2=O)c(F)cc1Cl [Compound 29, Methyl 2-{{2-chloro-5-[3,6-dihydro-3-methyl-2,6-dioxo-4-(trifluoromethyl)-1(2H)-pyrimidinyl]-4-fluorophenyl}imino}-4-oxo-3-thiazolidinebutyrate]",Preemergence herbicidal rating TRZAWR,[1]; rate 0.0625 kg/ha,0.0
same,Preemergence herbicidal rating TRZAWR,[1]; rate 0.1250 kg/ha,0.0
same,Preemergence herbicidal rating TRZAWR,[1]; rate 0.2500 kg/ha,4.0
same,Herbicidal rating ECHORC,[2]; 0.0313 kg/ha,4.0
same,Herbicidal rating ECHORC,[2]; 0.0625 kg/ha,7.0
same,Herbicidal rating ECHORC,[2]; 0.1250 kg/ha,7.0
same,Herbicidal rating ECHORC,[2]; 0.2500 kg/ha,7.0
same,Postemergence herbicidal rating SETVI,"SETVI (Foxtail, Green) [3]; Rate 0.0158 kg/ha",0.0
same,Postemergence herbicidal rating SETVI,"SETVI (Foxtail, Green) [3]; Rate 0.0315 kg/ha",1.0
same,Postemergence herbicidal rating SETVI,"SETVI (Foxtail, Green) [3]; Rate 0.0630 kg/ha",4.0
same,Herbicidal rating CYPSE,CYPSE (Flatsedge) [4]; rate 0.0313 kg/ha,0.0
same,Herbicidal rating CYPSE,CYPSE (Flatsedge) [4]; rate 0.0625 kg/ha,0.0
same,Herbicidal rating CYPSE,CYPSE (Flatsedge) [4]; rate 0.1250 kg/ha,0.0
same,Herbicidal rating CYPSE,CYPSE (Flatsedge) [4]; rate 0.2500 kg/ha,0.0
same,Herbicidal rating ECHORC,[5]; rate 0.0313 kg/ha,4.0
same,Herbicidal rating ECHORC,[5]; rate 0.0625 kg/ha,7.0
same,Herbicidal rating ECHORC,[5]; rate 0.1250 kg/ha,7.0
same,Herbicidal rating ECHORC,[5]; rate 0.2500 kg/ha,7.0
same,Preemergence herbicidal rating ECHCG,ECHCG (Barnyardgrass); rate 0.0625 kg/ha,0.0
same,Preemergence herbicidal rating ECHCG,ECHCG (Barnyardgrass); rate 0.1250 kg/ha,0.0
same,Preemergence herbicidal rating ECHCG,ECHCG (Barnyardgrass); rate 0.2500 kg/ha,0.0
same,Postemergence herbicidal rating ZEAMX,"ZEAMX (Corn, Field) [6]; Rate 0.0158 kg/ha",5.5
same,Postemergence herbicidal rating ZEAMX,"ZEAMX (Corn, Field) [6]; Rate 0.0315 kg/ha",5.5
same,Postemergence herbicidal rating ZEAMX,"ZEAMX (Corn, Field) [6]; Rate 0.0630 kg/ha",7.5
same,Preemergence herbicidal rating SETVI,"SETVI (Foxtail, Green) [7]; rate 0.0625 kg/ha",0.0
same,Preemergence herbicidal rating SETVI,"SETVI (Foxtail, Green) [7]; rate 0.1250 kg/ha",0.0
same,Preemergence herbicidal rating SETVI,"SETVI (Foxtail, Green) [7]; rate 0.2500 kg/ha",9.0
same,Herbicidal rating CYPIR,CYPIR (Rice Flatsedge) [8]; rate 0.0313 kg/ha,0.0
same,Herbicidal rating CYPIR,CYPIR (Rice Flatsedge) [8]; rate 0.0625 kg/ha,0.0
same,Herbicidal rating CYPIR,CYPIR (Rice Flatsedge) [8]; rate 0.1250 kg/ha,0.0
same,Herbicidal rating CYPIR,CYPIR (Rice Flatsedge) [8]; rate 0.2500 kg/ha,0.0
same,Herbicidal rating SAGPY,[9]; rate 0.0313 kg/ha,0.0
same,Herbicidal rating SAGPY,[9]; rate 0.0625 kg/ha,0.0
same,Herbicidal rating SAGPY,[9]; rate 0.1250 kg/ha,0.0
same,Herbicidal rating SAGPY,[9]; rate 0.2500 kg/ha,0.0
same,Postemergence herbicidal rating ORYSAT,"ORYSAT (Rice, Tebonnet); Rate 0.0158 kg/ha",1.0
same,Postemergence herbicidal rating ORYSAT,"ORYSAT (Rice, Tebonnet); Rate 0.0315 kg/ha",3.0
same,Postemergence herbicidal rating ORYSAT,"ORYSAT (Rice, Tebonnet); Rate 0.0630 kg/ha",3.5
same,Herbicidal rating CYPSE,CYPSE (Flatsedge) [10]; 0.0313 kg/ha,0.0
same,Herbicidal rating CYPSE,CYPSE (Flatsedge) [10]; 0.0625 kg/ha,0.0
same,Herbicidal rating CYPSE,CYPSE (Flatsedge) [10]; 0.1250 kg/ha,0.0
same,Herbicidal rating CYPSE,CYPSE (Flatsedge) [10]; 0.2500 kg/ha,0.0
same,Herbicidal rating CYPIR,CYPIR (Rice Flatsedge) [11]; 0.0313 kg/ha,0.0
same,Herbicidal rating CYPIR,CYPIR (Rice Flatsedge) [11]; 0.0625 kg/ha,0.0
same,Herbicidal rating CYPIR,CYPIR (Rice Flatsedge) [11]; 0.1250 kg/ha,0.0
same,Herbicidal rating CYPIR,CYPIR (Rice Flatsedge) [11]; 0.2500 kg/ha,0.0
same,Preemergence herbicidal rating ZEAMX,"ZEAMX (Corn, Field) [12]; rate 0.0625 kg/ha",0.0
same,Preemergence herbicidal rating ZEAMX,"ZEAMX (Corn, Field) [12]; rate 0.1250 kg/ha",0.0
same,Preemergence herbicidal rating ZEAMX,"ZEAMX (Corn, Field) [12]; rate 0.2500 kg/ha",6.0
"CCOC(=O)CN1C(=O)C(CC(=O)O)SC1=Nc1cc(-n2c(=O)cc(C(F)(F)F)n(C)c2=O)c(Cl)cc1Cl (stereo not shown) [Compound 33, 2-{{2,4-Dichloro-5-[3,6-dihydro-3-methyl-2,6-dioxo-4-(trifluoromethyl)-1(2H)-pyrimidinyl]phenyl}-imino}-4-oxo-3,5-thiazolidinediacetic acid, 3-ethyl ester]",Preemergence herbicidal rating TRZAWR,[1]; rate 0.0156 kg/ha,0.0
same,Preemergence herbicidal rating TRZAWR,[1]; rate 0.0313 kg/ha,0.0
same,Preemergence herbicidal rating TRZAWR,[1]; rate 0.0625 kg/ha,0.0
same,Preemergence herbicidal rating TRZAWR,[1]; rate 0.1250 kg/ha,0.0
same,Preemergence herbicidal rating TRZAWR,[1]; rate 0.2500 kg/ha,0.0
same,Herbicidal rating ECHORC,[2]; 0.2500 kg/ha,0.0
same,Postemergence herbicidal rating SETVI,"SETVI (Foxtail, Green) [3]; Rate 0.0158 kg/ha",4.0
same,Postemergence herbicidal rating SETVI,"SETVI (Foxtail, Green) [3]; Rate 0.0315 kg/ha",7.0
same,Postemergence herbicidal rating SETVI,"SETVI (Foxtail, Green) [3]; Rate 0.0630 kg/ha",8.0
same,Herbicidal rating CYPSE,CYPSE (Flatsedge) [4]; rate 0.2500 kg/ha,0.0
same,Herbicidal rating ECHORC,[5]; rate 0.2500 kg/ha,0.0
same,Preemergence herbicidal rating ECHCG,ECHCG (Barnyardgrass); rate 0.0156 kg/ha,0.0
same,Preemergence herbicidal rating ECHCG,ECHCG (Barnyardgrass); rate 0.0313 kg/ha,0.0
same,Preemergence herbicidal rating ECHCG,ECHCG (Barnyardgrass); rate 0.0625 kg/ha,0.0
same,Preemergence herbicidal rating ECHCG,ECHCG (Barnyardgrass); rate 0.1250 kg/ha,0.0
same,Preemergence herbicidal rating ECHCG,ECHCG (Barnyardgrass); rate 0.2500 kg/ha,0.0
same,Postemergence herbicidal rating ZEAMX,"ZEAMX (Corn, Field) [6]; Rate 0.0158 kg/ha",7.5
same,Postemergence herbicidal rating ZEAMX,"ZEAMX (Corn, Field) [6]; Rate 0.0315 kg/ha",8.0
same,Postemergence herbicidal rating ZEAMX,"ZEAMX (Corn, Field) [6]; Rate 0.0630 kg/ha",8.5
same,Preemergence herbicidal rating SETVI,"SETVI (Foxtail, Green) [7]; rate 0.0156 kg/ha",0.0
same,Preemergence herbicidal rating SETVI,"SETVI (Foxtail, Green) [7]; rate 0.0313 kg/ha",0.0
same,Preemergence herbicidal rating SETVI,"SETVI (Foxtail, Green) [7]; rate 0.0625 kg/ha",3.0
same,Preemergence herbicidal rating SETVI,"SETVI (Foxtail, Green) [7]; rate 0.1250 kg/ha",3.0
same,Preemergence herbicidal rating SETVI,"SETVI (Foxtail, Green) [7]; rate 0.2500 kg/ha",9.0
same,Herbicidal rating CYPIR,CYPIR (Rice Flatsedge) [8]; rate 0.2500 kg/ha,0.0
same,Herbicidal rating SAGPY,[9]; rate 0.2500 kg/ha,0.0
same,Postemergence herbicidal rating ORYSAT,"ORYSAT (Rice, Tebonnet); Rate 0.0158 kg/ha",0.5
same,Postemergence herbicidal rating ORYSAT,"ORYSAT (Rice, Tebonnet); Rate 0.0315 kg/ha",2.0
same,Postemergence herbicidal rating ORYSAT,"ORYSAT (Rice, Tebonnet); Rate 0.0630 kg/ha",2.0
same,Herbicidal rating CYPSE,CYPSE (Flatsedge) [10]; 0.2500 kg/ha,0.0
same,Herbicidal rating CYPIR,CYPIR (Rice Flatsedge) [11]; 0.2500 kg/ha,0.0
same,Preemergence herbicidal rating ZEAMX,"ZEAMX (Corn, Field) [12]; rate 0.0156 kg/ha",0.0
same,Preemergence herbicidal rating ZEAMX,"ZEAMX (Corn, Field) [12]; rate 0.0313 kg/ha",0.0
same,Preemergence herbicidal rating ZEAMX,"ZEAMX (Corn, Field) [12]; rate 0.0625 kg/ha",0.0
same,Preemergence herbicidal rating ZEAMX,"ZEAMX (Corn, Field) [12]; rate 0.1250 kg/ha",0.0
same,Preemergence herbicidal rating ZEAMX,"ZEAMX (Corn, Field) [12]; rate 0.2500 kg/ha",0.0
